Reference: patent US9700550B1, “Decreasing expression level of apoptosis-related genes by treating a human subject with a nitroxide” (priority 2016, dated 2017)

Assays:
Assay type in all cases: in vivo
[1] = tested on: Bak1, Pdcd5, Casp2, Tradd, Trp53inp1 (mouse gene of Tp53inp1), Casp3, or Casp12; test: Serum level of apoptosis pathway genes in a human subject after Tempol treatment; conditions: 1500 mg Tempol per day for 180 days
Protocol: A 70-kilogram human subject is identified for increased expression level of Bak1, Pdcd5, Casp2, Tradd, Trp53inp1 (mouse gene of Tp53inp1), Casp3, or Casp12. The human subject is administered a dose of 1500 mg of Tempol per day for 180 days. This may be administered in a single dose, or may be administered as a number of smaller doses over a 24-hour period: for example, three 500-mg doses at eight-hour intervals. Following treatment, the serum level of Bak1, Pdcd5, Casp2, Tradd, Trp53inp1 (mouse gene of Tp53inp1), Casp3, or Casp12, is reduced.
A 70-kilogram human subject is identified for decreased immune response to a bacterial infection. The human subject is administered a dose of 1500 mg of Tempol per day for 180 days. This may be administered in a single dose, or may be administered as a number of smaller doses over a 24-hour period: for example, three 500-mg doses at eight-hour intervals. Following treatment, the serum level of Bak1, Pdcd5, Casp2, Tradd, Trp53inp1 (mouse gene of Tp53inp1), Casp3, or Casp12, is reduced.
A 70-kilogram human subject is identified as at risk for a psychiatric condition. The human subject is administered a dose of 1500 mg of Tempol per day for 180 days. This may be administered in a single dose, or may be administered as a number of smaller doses over a 24-hour period: for example, three 500-mg doses at eight-hour intervals. Following treatment, the serum level of Bak1, Pdcd5, Casp2, Tradd, Trp53inp1 (mouse gene of Tp53inp1), Casp3, or Casp12, is reduced.
A 70-kilogram human subject is identified as risk for stress-induced apoptosis. The human subject is administered a dose of 1500 mg of Tempol per day for 180 days. This may be administered in a single dose, or may be administered as a number of smaller doses over a 24-hour period: for example, three 500-mg doses at eight-hour intervals. Following treatment, the serum level of Bak1, Pdcd5, Casp2, Tradd, Trp53inp1 (mouse gene of Tp53inp1), Casp3, or Casp12, is reduced.
A 70-kilogram human subject is identified as at risk for a disease associated with an increased level of apoptosis. The human subject is administered a dose of 1500 mg of Tempol per day for 180 days. This may be administered in a single dose, or may be administered as a number of smaller doses over a 24-hour period: for example, three 500-mg doses at eight-hour intervals. Following treatment, the serum level of Bak1, Pdcd5, Casp2, Tradd, Trp53inp1 (mouse gene of Tp53inp1), Casp3, or Casp12, is reduced.
A 70-kilogram human subject is identified as at risk of a disease having an increased expression level of Bak1, Pdcd5, Casp2, Tradd, Trp53inp1 (mouse gene of Tp53inp1), Casp3, or Casp12. The human subject is administered a dose of 1500 mg of Tempol per day for 180 days. This may be administered in a single dose, or may be administered as a number of smaller doses over a 24-hour period: for example, three 500-mg doses at eight-hour intervals. Following treatment, the serum level of Bak1, Pdcd5, Casp2, Tradd, Trp53inp1 (mouse gene of Tp53inp1), Casp3, or Casp12, is reduced.
A 70-kilogram human subject is identified as at risk of Parkinson's disease […]. The human subject is administered a dose of 1500 mg of Tempol per day for 180 days. This may be administered in a single dose, or may be administered as a number of smaller doses over a 24-hour period: for example, three 500-mg doses at eight-hour intervals. Following treatment, the serum level of Bak1, Pdcd5, Casp2, Tradd, Trp53inp1 (mouse gene of Tp53inp1), Casp3, or Casp12, is reduced.

Bak1 = test: Gene expression in cardiac tissue of Tempol-fed mice, chip-based microarray
Protocol: (§1) To assess the effects of Tempol on gene expression, Tempol was administered to experimental mice at a dose of 5 mg/g of food from 14 months to 31 months after birth. Mice receiving the same food without the addition of Tempol were used as a negative control. At the age of 31 months, the experimental animals were sacrificed and the hearts were surgically removed. The expression of a broad spectrum of genes in the cardiac tissue was assessed using chip-based microarray technology. Such chips are well known in the art and are widely used to assess gene expression.

Casp3 = test: as above
Protocol: as §1

[2] = tested on: Trp53inp1 (mouse gene of Tp53inp1); test: as above
Protocol: as §1

Pdcd5 = test: as above
Protocol: as §1

Casp12 = test: as above
Protocol: as §1

Casp2 = test: as above
Protocol: as §1

Tradd = test: as above
Protocol: as §1

[3] = Tempol 5 mg/g of food vs control mice
[4] = Tempol-treated vs control mice, P-value 0.01
[5] = Tempol-treated vs control mice, P-value 0.00
[6] = Tempol-treated vs control mice, P-value 0.03

Question: Which “serum level of Bak1, Pdcd5, Casp2, Tradd, Trp53inp1, Casp3, or Casp12 following treatment” value (from here on “serum level of Bak1, Pdcd5, Casp2, Tradd”) ([1]; Example 2: 70-kilogram human subject with increased expression level of the gene) does the source give for `CC1(C)CC(O)CC(C)(C)N1[O]` [Tempol, 4-hydroxy-2,2,6,6-tetramethylpiperidine-1-oxyl] here?
Answer: reduced

Question: What about the “serum level of Bak1, Pdcd5, Casp2, Tradd” value ([1]; Example 3: 70-kilogram human subject with decreased immune response to a bacterial infection) of the same compound?
Answer: reduced

Question: And the “serum level of Bak1, Pdcd5, Casp2, Tradd” value ([1]; Example 4: 70-kilogram human subject at risk for a psychiatric condition)?
Answer: reduced

Question: And the “serum level of Bak1, Pdcd5, Casp2, Tradd” value ([1]; Example 5: 70-kilogram human subject at risk for stress-induced apoptosis)?
Answer: reduced

Question: What about the “serum level of Bak1, Pdcd5, Casp2, Tradd” value ([1]; Example 6: 70-kilogram human subject at risk for a disease associated with an increased level of apoptosis) of the same compound?
Answer: reduced

Question: What about the “serum level of Bak1, Pdcd5, Casp2, Tradd” value ([1]; Example 7: 70-kilogram human subject at risk of a disease having an increased expression level of the gene) of the same compound?
Answer: reduced

Question: And the “serum level of Bak1, Pdcd5, Casp2, Tradd” value ([1]; Example 8: 70-kilogram human subject at risk of Parkinson's disease)?
Answer: reduced

Question: And the “Bak1 expression change, in words” value (Bak1; [3])?
Answer: statistically significant decrease in expression

Question: And the Bak1 fold change (Bak1; [4])?
Answer: −1.15

Question: And the “Bak1 expression, Tempol-treated mice” value (Bak1; age 31 months, Tempol 5 mg/g of food from 14 to 31 months, control mice 260)?
Answer: 226

Question: What about the “Casp3 expression change, in words” value (Casp3; [3]) of the same compound?
Answer: statistically significant decrease in expression

Question: And the Casp3 fold change (Casp3; [5])?
Answer: −1.47

Question: What about the “Casp3 expression, Tempol-treated mice” value (Casp3; age 31 months, Tempol 5 mg/g of food from 14 to 31 months, control mice 604) of the same compound?
Answer: 414

Question: What about the “Trp53inp1 expression change, in words” value [2, 3] of the same compound?
Answer: statistically significant decrease in expression

Question: What about the Trp53inp1 fold change [2, 5] of the same compound?
Answer: −1.33

Question: What about the “Trp53inp1 expression, Tempol-treated mice” value ([2]; age 31 months, Tempol 5 mg/g of food from 14 to 31 months, control mice 1107) of the same compound?
Answer: 830

Question: And the “Pdcd5 expression change, in words” value (Pdcd5; [3])?
Answer: statistically significant decrease in expression

Question: What about the Pdcd5 fold change (Pdcd5; [6]) of the same compound?
Answer: −1.15

Question: And the “Pdcd5 expression, Tempol-treated mice” value (Pdcd5; age 31 months, Tempol 5 mg/g of food from 14 to 31 months, control mice 2863)?
Answer: 2503

Question: What about the “Casp12 expression change, in words” value (Casp12; [3]) of the same compound?
Answer: statistically significant decrease in expression

Question: And the Casp12 fold change (Casp12; Tempol-treated vs control mice, P-value 0.02)?
Answer: −1.61

Question: And the “Casp12 expression, Tempol-treated mice” value (Casp12; age 31 months, Tempol 5 mg/g of food from 14 to 31 months, control mice 701)?
Answer: 436

Question: And the “Casp2 expression change, in words” value (Casp2; [3])?
Answer: statistically significant decrease in expression

Question: What about the Casp2 fold change (Casp2; [6]) of the same compound?
Answer: −1.20

Question: And the “Casp2 expression, Tempol-treated mice” value (Casp2; age 31 months, Tempol 5 mg/g of food from 14 to 31 months, control mice 316)?
Answer: 261

Question: And the “Tradd expression change, in words” value (Tradd; [3])?
Answer: statistically significant decrease in expression

Question: What about the Tradd fold change (Tradd; [4]) of the same compound?
Answer: −1.23

Question: And the “Tradd expression, Tempol-treated mice” value (Tradd; age 31 months, Tempol 5 mg/g of food from 14 to 31 months, control mice 288)?
Answer: 233
